# Measurements from patent US20240218385A1, “NEGATIVE-STRAND RNA VIRAL VECTOR AND PLANT GENOME EDITING METHOD WITHOUT TRANSFORMATION” (ZHEJIANG UNIVERSITY, priority 2021, published 2024).
# What was measured:
# Assay type in all cases: cell-based
# [1] = tested on: PDS gene crPDS1 target site; test: Mutation genotypes at the crPDS1 target in regenerated N. benthamiana plants after antiviral treatment (HTS); conditions: for proportion of M0 plants with mutations at the target site: ribavirin 40 mg/L, favipiravir 40 mg/L, remdesivir 1.2 mg/L
# Excerpt: Plant regeneration through culturing the leaf tissues infected with the TSWV vectors are usually ineffective in eliminating the virus. The embodiment investigated the effect of antiviral treatment during plant regeneration on virus clearance using leaf tissues infected with the TSWV-Cas12a-crRNA vector targeting the N. benthamiana crPDS1 site. […] After 35 days of culturing, explants together with induced callus were transferred to an induction medium without antiviral agents until day 55, and then the regenerated seedlings were transferred to a rooting medium. Three independent biological replicates were included in each group, and 30 plants were randomly selected in each biological replicate of each group for subsequent analysis. Total RNA was extracted from M0 regenerated seedlings, and RT-PCR was conducted using the TSWV N specific primers N/F ([…]; SEQ ID NO: 131) and N/R ([…]; SEQ ID NO: 132) to examine the virus clearance rate. The primers Nb/actin/F ([…]; SEQ ID NO: 133) and Nb/actin/R ([…]; SEQ ID NO: 134) for amplification of the NbActin cDNA served as an internal control. […] In contrast, the mock treatment had only 4.4% of virus-free regenerated plants.
# To further evaluate the effect of drug treatment on the efficiency of gene editing in the regenerated plants, DNA sequences containing the target loci were PCR amplified using specific primers (SEQ ID NO: 70 and 71), and the resulting amplicons were high-throughput sequenced. The mutation type of each plant was analyzed, and the editing efficiency of each group was calculated. We used the following definitions to call the putative genotype: wild-type (WT) with editing efficiency (indels %) of 0-10.0%; chimeric (Chi) with 10%<indels %≤35.0%; heterozygous (He) with 35.0%<indels %≤80.0%, i.e., one allele is edited at the target site but the other allele is wild-type; homozygous (Ho) with indels % between 80.0% and 100.0% if both alleles have the same type of editing, and biallelic (Bi) if two alleles produced two different types of editing.
# [2] = tested on: TSWV; test: TSWV clearance from regenerated N. benthamiana plants by antiviral treatment during tissue culture (RT-PCR with N-specific primers); conditions: 40 mg/L in medium; explants infected with TSWV-Cas12a-crRNA targeting crPDS1
# [3] = tested on: TSWV; test: TSWV clearance from regenerated tobacco plants by antiviral treatment
# Excerpt: (§1) This embodiment further investigates the impact of antiviral drug treatment on virus clearance and mutant plant recovery using tobacco leaf tissues infected with the TSWV vectors for tissue culture and regeneration. We used the recombinant TSWV-Cas12a-crRNA vector described in Example 24 as an example, which targets the crPDS1 target sites of both PDS genes in tobacco. The systemic leaves infected with this virus vector were used as explants for tissue culture and plant regeneration, following the same experimental protocol as described in Example 24.
# (§2) The distribution of mutant genotypes in the regenerated plants from each drug treatment group was further analyzed.
# [4] = tested on: PDS genes crPDS1 target sites; test: Target mutations in regenerated tobacco plants after antiviral treatment (HTS)
# Excerpt: as §1, §2
Structure (SMILES),total editing efficiency compared to the mock group ([1]; M0 plants),"proportion of Ho/Bi types compared to the mock group ([1]; M0 plants, PDSa and PDSb)",proportion of M0 plants with mutations at the target site ([1]; PDSa and PDSb),TSWV clearance rate (regenerated plants free of virus) [2] [%],plants with tetra-allelic mutations at the crPDS1 target site ([1]; 40 mg/L ribavirin in medium) [%],"proportion of Chi types compared to the mock group ([1]; M0 plants, PDSa and PDSb)",presence of viral vectors in the regenerated plants [3],proportion of mutation types in regenerated plants [4],percentage of regenerated plants carrying target mutations ([4]; HTS)
NC(=O)c1nc(F)c[nH]c1=O [favipiravir],lower than that of the mock group,significantly higher than that of the mock group,lowest mutation rates,,,,,,
NC(=O)c1ncn([C@@H]2O[C@H](CO)[C@@H](O)[C@H]2O)n1 [ribavirin],,increased in both homoeologs,highest proportion of plants with mutations,100,28.9,decreased,effectively cleared the virus from all of the regenerated plants,increased the proportion of various mutation types,significantly higher than that in the control treatment and other drug treatment groups
